According to patent US8901133B2, “Heterocyclic compounds and uses thereof” (Infinity Pharmaceuticals, Inc., priority 2010, dated 2014):

Columns and labels:
PI3Kδ = target: T1, PI3Kδ (Homo sapiens, UniProt O00329); experiment: PI3 Kinase HTRF assay, PI3Kδ; format: biochemical; settings: 10 μM PIP2, 10 μM ATP; read-out: PI3K δ IC50
T1 construct: purchased Millipore Corporation 14-604-K
In short: (§1)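 Time-resolved FRET kit assay measuring PIP3 made from 10 μM PIP2, ATP 10 μM, 1 h room temperature. IC50 fitted from 12-point dose-response.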

Balb/c splenic B cells = experiment: B cell activation and proliferation assay (Alamar Blue); format: cell-based; settings: Mus musculus, read-out: B cell prolif. IC50
Method: The ability of one or more subject compounds to inhibit B cell activation and proliferation is determined according to standard procedures known in the art. For example, an in vitro cellular proliferation assay is established that measures the metabolic activity of live cells. The assay is performed in a 96 well microtiter plate using Alamar Blue reduction. Balb/c splenic B cells are purified over a Ficoll-Paque™ PLUS gradient followed by magnetic cell separation using a MACS B cell Isolation Kit (Miletenyi). Cells are plated in 90 ul at 50,000 cells/well in B Cell Media (RPMI+10% FBS+Penn/Strep+50 uM bME+5 mM HEPES). A compound disclosed herein is diluted in B Cell Media and added in a 10 μl volume. Plates are incubated for 30 min at 37 C and 5% CO2 (0.2% DMSO final concentration). A 50 μl B cell stimulation cocktail is then added containing either 10 ug/ml LPS or 5 ug/ml F(ab′)2 Donkey anti-mouse IgM plus 2 ng/ml recombinant mouse IL4 in B Cell Media. Plates are incubated for 72 hours at 37° C. and 5% CO2. A volume of 15 μl of Alamar Blue reagent is added to each well and plates are incubated for 5 hours at 37 C and 5% CO2. Alamar Blue fluoresce is read at 560Ex/590Em, and IC50 or EC50 values are calculated using GraphPad Prism 5.

PI3Kα = target: T2, PI3Kα (Homo sapiens, UniProt P42336); experiment: PI3 Kinase HTRF assay, PI3Kα; format: biochemical; settings: 10 μM PIP2, 10 μM ATP; read-out: PI3K α IC50
T2 construct: purchased Millipore Corporation 14-602-K
T2 sequence (P42336 whole entry): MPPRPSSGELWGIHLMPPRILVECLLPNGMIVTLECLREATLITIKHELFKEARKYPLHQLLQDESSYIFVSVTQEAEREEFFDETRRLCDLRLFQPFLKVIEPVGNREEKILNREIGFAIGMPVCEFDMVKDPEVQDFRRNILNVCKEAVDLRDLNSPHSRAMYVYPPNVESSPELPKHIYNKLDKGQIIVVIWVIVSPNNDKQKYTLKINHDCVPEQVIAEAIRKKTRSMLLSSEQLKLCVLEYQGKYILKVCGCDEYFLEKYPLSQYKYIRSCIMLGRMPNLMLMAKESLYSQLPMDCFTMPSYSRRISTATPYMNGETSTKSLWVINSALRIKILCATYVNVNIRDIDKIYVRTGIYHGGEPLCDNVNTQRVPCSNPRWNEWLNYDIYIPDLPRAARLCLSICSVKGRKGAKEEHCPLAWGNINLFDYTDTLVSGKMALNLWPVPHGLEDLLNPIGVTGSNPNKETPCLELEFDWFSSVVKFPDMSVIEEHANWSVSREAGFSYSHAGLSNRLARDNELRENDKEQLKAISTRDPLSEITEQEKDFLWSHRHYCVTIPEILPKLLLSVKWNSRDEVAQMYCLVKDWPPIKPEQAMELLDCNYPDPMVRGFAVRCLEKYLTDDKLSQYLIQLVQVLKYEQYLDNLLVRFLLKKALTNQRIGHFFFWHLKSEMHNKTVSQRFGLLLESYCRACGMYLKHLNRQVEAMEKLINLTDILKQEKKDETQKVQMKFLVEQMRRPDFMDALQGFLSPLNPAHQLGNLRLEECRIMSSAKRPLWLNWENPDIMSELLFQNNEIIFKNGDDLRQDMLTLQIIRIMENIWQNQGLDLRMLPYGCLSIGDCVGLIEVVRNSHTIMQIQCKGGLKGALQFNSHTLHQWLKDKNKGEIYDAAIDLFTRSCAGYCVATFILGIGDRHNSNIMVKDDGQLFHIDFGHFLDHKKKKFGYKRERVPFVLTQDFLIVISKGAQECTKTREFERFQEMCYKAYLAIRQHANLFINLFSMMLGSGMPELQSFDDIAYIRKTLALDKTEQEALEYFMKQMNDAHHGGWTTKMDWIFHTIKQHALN
T2 sequence (P27986 whole entry partner): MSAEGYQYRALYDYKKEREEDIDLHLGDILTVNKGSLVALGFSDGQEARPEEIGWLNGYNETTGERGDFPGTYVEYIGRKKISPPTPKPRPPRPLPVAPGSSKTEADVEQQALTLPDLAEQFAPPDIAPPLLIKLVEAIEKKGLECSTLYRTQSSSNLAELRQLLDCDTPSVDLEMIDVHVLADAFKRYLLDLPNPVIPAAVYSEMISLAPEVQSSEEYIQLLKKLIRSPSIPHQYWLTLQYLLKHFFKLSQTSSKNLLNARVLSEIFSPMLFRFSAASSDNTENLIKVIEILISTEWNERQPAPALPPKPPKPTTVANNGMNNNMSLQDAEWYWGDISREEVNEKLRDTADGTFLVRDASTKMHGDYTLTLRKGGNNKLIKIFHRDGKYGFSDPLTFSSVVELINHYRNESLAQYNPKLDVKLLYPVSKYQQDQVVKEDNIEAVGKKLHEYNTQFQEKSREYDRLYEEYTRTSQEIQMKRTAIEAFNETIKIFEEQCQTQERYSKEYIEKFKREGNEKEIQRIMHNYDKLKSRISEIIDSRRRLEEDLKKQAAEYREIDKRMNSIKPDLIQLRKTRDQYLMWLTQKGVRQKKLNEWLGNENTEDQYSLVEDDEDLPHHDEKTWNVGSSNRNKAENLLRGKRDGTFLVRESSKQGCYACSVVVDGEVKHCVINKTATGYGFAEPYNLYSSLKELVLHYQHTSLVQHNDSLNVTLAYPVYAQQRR
In short: as §1

PI3Kγ = target: T3, PI3Kγ (Homo sapiens, UniProt P48736); experiment: PI3 Kinase HTRF assay, PI3Kγ; format: biochemical; settings: 10 μM PIP2, 10 μM ATP; read-out: PI3K γ IC50
T3 construct: purchased Millipore Corporation 14-558-K
T3 sequence (P48736 whole entry): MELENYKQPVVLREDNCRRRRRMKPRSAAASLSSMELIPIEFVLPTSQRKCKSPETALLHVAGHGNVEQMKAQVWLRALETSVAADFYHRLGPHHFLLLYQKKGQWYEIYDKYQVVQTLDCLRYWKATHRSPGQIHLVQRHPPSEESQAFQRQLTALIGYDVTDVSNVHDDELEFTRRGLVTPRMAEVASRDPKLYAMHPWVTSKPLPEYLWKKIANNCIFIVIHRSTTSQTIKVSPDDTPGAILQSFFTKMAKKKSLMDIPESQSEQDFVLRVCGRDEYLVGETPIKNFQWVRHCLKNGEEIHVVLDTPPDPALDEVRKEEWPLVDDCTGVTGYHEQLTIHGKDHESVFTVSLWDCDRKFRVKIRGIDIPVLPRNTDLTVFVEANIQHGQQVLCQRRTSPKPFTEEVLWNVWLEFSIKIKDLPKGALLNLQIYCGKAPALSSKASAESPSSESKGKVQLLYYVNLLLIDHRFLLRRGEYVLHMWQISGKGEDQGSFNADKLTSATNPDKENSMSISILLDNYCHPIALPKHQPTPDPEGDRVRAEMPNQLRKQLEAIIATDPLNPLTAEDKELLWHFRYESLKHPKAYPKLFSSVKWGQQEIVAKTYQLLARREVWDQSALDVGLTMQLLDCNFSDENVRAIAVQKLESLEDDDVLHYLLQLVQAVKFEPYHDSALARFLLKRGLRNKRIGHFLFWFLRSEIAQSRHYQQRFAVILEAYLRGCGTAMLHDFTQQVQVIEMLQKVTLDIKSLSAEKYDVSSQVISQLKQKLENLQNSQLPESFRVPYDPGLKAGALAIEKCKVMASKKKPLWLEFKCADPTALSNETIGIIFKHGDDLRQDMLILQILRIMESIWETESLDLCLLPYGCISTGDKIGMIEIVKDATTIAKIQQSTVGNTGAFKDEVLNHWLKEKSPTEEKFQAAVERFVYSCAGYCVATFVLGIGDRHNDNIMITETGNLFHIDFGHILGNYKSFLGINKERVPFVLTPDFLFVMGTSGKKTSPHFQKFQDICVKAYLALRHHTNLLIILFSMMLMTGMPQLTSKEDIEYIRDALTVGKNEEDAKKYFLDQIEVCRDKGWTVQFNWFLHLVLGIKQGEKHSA
In short: as §1

PI3Kβ = target: T4, PI3Kβ (Homo sapiens, UniProt P42338); experiment: PI3 Kinase HTRF assay, PI3Kβ; format: biochemical; settings: 10 μM PIP2, 10 μM ATP; read-out: PI3K β IC50
T4 construct: purchased Millipore Corporation 14-603-K
T4 sequence (P42338 whole entry): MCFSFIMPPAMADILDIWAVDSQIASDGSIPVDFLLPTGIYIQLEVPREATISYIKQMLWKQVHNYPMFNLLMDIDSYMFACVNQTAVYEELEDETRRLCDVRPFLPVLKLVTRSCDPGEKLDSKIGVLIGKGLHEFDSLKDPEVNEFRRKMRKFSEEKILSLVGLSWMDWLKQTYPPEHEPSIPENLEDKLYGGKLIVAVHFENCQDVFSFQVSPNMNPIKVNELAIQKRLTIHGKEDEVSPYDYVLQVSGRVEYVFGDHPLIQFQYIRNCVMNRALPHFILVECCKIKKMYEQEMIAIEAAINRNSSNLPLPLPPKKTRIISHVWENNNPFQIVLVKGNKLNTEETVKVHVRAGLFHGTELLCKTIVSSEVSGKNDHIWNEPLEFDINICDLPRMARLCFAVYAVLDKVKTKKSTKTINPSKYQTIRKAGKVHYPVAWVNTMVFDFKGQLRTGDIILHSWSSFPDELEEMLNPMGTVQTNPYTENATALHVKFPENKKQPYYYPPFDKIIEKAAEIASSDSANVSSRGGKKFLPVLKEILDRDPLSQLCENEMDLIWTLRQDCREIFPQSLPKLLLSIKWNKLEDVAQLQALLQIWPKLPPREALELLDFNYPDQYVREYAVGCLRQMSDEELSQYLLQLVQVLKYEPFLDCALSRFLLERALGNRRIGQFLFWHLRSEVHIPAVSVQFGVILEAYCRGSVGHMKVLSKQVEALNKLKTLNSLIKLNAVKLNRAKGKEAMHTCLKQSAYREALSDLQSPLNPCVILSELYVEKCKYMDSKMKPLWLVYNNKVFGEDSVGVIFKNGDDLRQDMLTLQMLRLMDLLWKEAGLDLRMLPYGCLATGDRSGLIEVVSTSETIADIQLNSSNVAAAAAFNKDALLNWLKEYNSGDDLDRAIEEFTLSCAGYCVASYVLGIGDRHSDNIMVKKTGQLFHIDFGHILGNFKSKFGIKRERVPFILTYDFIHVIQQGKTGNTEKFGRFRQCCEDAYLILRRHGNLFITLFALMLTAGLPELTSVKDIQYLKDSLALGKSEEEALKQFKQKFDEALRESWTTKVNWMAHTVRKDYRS
T4 sequence (P27986 whole entry partner): as the sequence (P27986 whole entry partner) above
In short: as §1

T1 sequence (O00329 whole entry): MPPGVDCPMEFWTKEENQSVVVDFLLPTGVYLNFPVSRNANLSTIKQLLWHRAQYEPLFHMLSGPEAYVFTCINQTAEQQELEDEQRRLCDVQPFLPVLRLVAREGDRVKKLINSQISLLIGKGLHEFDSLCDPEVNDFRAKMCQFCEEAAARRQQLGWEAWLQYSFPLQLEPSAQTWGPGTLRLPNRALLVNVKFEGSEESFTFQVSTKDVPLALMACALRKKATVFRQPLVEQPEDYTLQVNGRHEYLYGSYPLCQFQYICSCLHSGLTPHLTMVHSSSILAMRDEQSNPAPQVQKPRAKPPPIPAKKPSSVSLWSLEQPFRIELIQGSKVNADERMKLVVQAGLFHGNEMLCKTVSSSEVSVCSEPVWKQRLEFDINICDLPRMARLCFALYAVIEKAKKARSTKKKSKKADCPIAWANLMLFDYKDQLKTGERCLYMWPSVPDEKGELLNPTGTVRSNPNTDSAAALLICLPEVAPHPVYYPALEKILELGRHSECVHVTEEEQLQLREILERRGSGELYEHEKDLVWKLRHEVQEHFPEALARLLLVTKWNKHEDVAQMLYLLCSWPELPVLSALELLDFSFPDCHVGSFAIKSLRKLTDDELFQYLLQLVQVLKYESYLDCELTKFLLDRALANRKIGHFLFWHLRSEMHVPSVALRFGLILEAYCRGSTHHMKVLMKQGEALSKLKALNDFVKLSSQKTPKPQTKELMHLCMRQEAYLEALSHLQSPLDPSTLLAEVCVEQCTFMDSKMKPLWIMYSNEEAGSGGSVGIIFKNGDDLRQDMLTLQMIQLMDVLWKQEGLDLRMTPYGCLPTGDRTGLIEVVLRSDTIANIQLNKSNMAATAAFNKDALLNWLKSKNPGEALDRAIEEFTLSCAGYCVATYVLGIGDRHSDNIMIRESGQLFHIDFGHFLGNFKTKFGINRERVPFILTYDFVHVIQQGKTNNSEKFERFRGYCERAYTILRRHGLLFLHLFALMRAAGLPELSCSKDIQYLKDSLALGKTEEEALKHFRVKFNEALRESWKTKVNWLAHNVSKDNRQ
T1 sequence (P27986 whole entry partner): as the sequence (P27986 whole entry partner) above

| SMILES | IC50 (PI3Kδ) [nM] | IC50 (PI3Kα) [nM] | IC50 (PI3Kγ) [nM] | IC50 (PI3Kβ) [nM] | IC50 (Balb/c splenic B cells) [nM] |
| --- | --- | --- | --- | --- | --- |
| CC(C)N1CCC(Oc2nc([C@H](C)Nc3ncnc4[nH]cnc34)cc3cccc(-c4cnn(C)c4)c23)CC1 [Compound 158] | < 100 | > 10000 | > 10000 | < 10000 | < 1000 |
| C[C@H](Nc1ccnc2ccnn12)c1cc2cccc(Cl)c2c(C(=O)N2C3CCC2COC3)n1 [Compound 125] | < 100 | > 10000 | < 10000 | < 10000 | < 100 |
| C[C@H](Nc1ncnc2scnc12)c1cc2cccc(Cl)c2c(OCCN2CCCC2)n1 [Compound 121] | < 100 | < 1000 | < 1000 | < 1000 | < 100 |
| C[C@H](Nc1ncnc2cccnc12)c1cc2cccc(Cl)c2c(C(=O)N2C3CCC2COC3)n1 [Compound 123] | < 100 | < 10000 | < 1000 | < 10000 | < 100 |
| C[C@H](Nc1ncnc2[nH]cnc12)c1cc2cccc(-c3cnn(C)c3)c2c(OCCN2CCCC2)n1 [Compound 151] | < 100 | > 10000 | < 10000 | < 10000 | < 100 |
| C[C@H](Nc1ncnc2[nH]cnc12)c1cc2c(F)cccc2c(CCN2CCOCC2)n1 [Compound 53] | < 100 | > 10000 | > 10000 | > 10000 | < 100 |
| C[C@H](Nc1ncnc2ccccc12)c1cc2cccc(Cl)c2c(C(=O)N2CCOCC2)n1 [Compound 119] | < 100 | < 10000 | < 1000 | > 10000 | < 1000 |
| C[C@H](Nc1ccnc2ccnn12)c1cc2cccc(Cl)c2c(C(=O)N2CCOCC2)n1 [Compound 120] | < 100 | < 10000 | < 1000 | < 10000 | < 100 |
| C[C@H](Nc1ccnn2ccnc12)c1cc2cccc(Cl)c2c(OC2CCN(S(C)(=O)=O)CC2)n1 [Compound 176] | < 100 | > 10000 | < 10000 | < 10000 | < 1000 |
| C[C@H](Nc1ncnc2cccnc12)c1cc2ccccc2c(C(=O)N2CCOCC2)n1 [Compound 247] | < 100 | > 10000 | > 10000 | > 10000 | < 1000 |
| C[C@H](Nc1ccnn2ccnc12)c1cc2cccc(Cl)c2c(C(=O)N2CCOCC2)n1 [Compound 188] | < 100 | < 10000 | < 1000 | < 1000 | < 100 |
| Cc1cccc2cc([C@H](C)Nc3ncnc4cccnc34)nc(OCCN3CCCC3)c12 [Compound 162] | < 100 | < 1000 | < 1000 | < 10000 | < 100 |
| C[C@H](Nc1ncnc2[nH]cc(C(N)=O)c12)c1cc2cccc(Cl)c2c(C(=O)N2C3CCC2COC3)n1 [Compound 207] | < 100 | < 10000 | < 100 | < 10000 | < 100 |

Further lines, with some results ahead:

| IC50 (PI3Kδ) [nM] | IC50 (PI3Kα) [nM] | IC50 (PI3Kγ) [nM] | IC50 (PI3Kβ) [nM] | SMILES | IC50 (Balb/c splenic B cells) [nM] |
| --- | --- | --- | --- | --- | --- |
| < 100 | < 10000 | < 1000 | < 10000 | CNC(=O)COc1nc([C@H](C)Nc2ncnc3[nH]cnc23)cc2cccc(Cl)c12 [Compound 44] | < 1000 |
| < 100 | > 10000 | > 10000 | > 10000 | C[C@H](Nc1ccnc2ccnn12)c1cc2cccc(Cl)c2c(C(=O)NC2CCOCC2)n1 [Compound 177] | < 100 |
| < 100 | < 10000 | < 10000 | > 10000 | C[C@H](Nc1ncnc2scnc12)c1cc2cccc(Cl)c2c(C(=O)NC2CCCC2)n1 [Compound 213] | < 100 |
| < 100 | < 10000 | > 10000 | < 10000 | CC(C)N1CCC(Oc2nc([C@H](C)Nc3ncnc4[nH]cnc34)cc3cccc(Cl)c23)CC1 [Compound 47, (S)—N-(1-(8-chloro-1-(1-isopropylpiperidin-4-yloxy)isoquinolin-3-yl)ethyl)-9H-purin-6-amine] | < 100 |
| < 100 | < 10000 | < 1000 | > 10000 | C[C@H](Nc1ncnc2[nH]cnc12)c1cc2cccc(Cl)c2c(OCC(=O)N2CCOCC2)n1 [Compound 43] | < 100 |
| < 100 | < 10000 | < 10000 | < 10000 | Cc1cccc2cc([C@H](C)Nc3ncnc4[nH]cnc34)nc(OCC3CCN(C)CC3)c12 [Compound 92] | < 100 |
| < 100 | < 10000 | < 1000 | < 10000 | C[C@H](Nc1ncnc2cccnc12)c1cc2cccc(Cl)c2c(C(=O)N2CCOC[C@@H]2C)n1 [Compound 248] | < 100 |
| < 100 | > 10000 | < 10000 | > 10000 | C[C@H](Nc1ncnc2[nH]cnc12)c1cc2cccc(Cl)c2c(C(=O)NC2CCC2)n1 [Compound 23] | < 100 |
| < 100 | > 10000 | < 1000 | < 10000 | C[C@H](Nc1ncnc2[nH]cnc12)c1cc2cccc(Cl)c2c(C(=O)NCc2ccccc2)n1 [Compound 26] | < 100 |
| < 100 | > 10000 | > 10000 | < 10000 | Cc1cccc2cc([C@H](C)Nc3ncnc4[nH]cnc34)nc(OC3CCN(C(C)C)CC3)c12 [Compound 57] | < 1000 |
| < 100 | < 10000 | < 10000 | > 10000 | C[C@H](Nc1ncnc2[nH]cnc12)c1cc2cccc(Cl)c2c(C(=O)N2CCN(C)CC2)n1 [Compound 15] | < 100 |
| < 100 | < 10000 | < 10000 | < 10000 | C[C@H](Nc1ncnc2scnc12)c1cc2cccc(Cl)c2c(C(=O)N2CCC(O)CC2)n1 [Compound 234] | < 100 |
| < 100 | > 10000 | > 10000 | < 10000 | C[C@@H]1CN(C(=O)c2nc([C@H](C)Nc3ncnc4[nH]cnc34)cc3cccc(Cl)c23)CCN1 [Compound 17] | < 1000 |
| < 100 | < 10000 | < 10000 | < 10000 | C[C@H](Nc1ncnc2[nH]cnc12)c1cc2cccc(Cl)c2c(CCN2CCOCC2)n1 [Compound 4] | < 100 |
| < 100 | < 10000 | < 1000 | < 10000 | CC(=O)NCCOc1nc([C@H](C)Nc2ncnc3[nH]cnc23)cc2cccc(Cl)c12 [Compound 40, (S)—N-(2-(3-(1-(9H-purin-6-ylamino)ethyl)-8-chloroisoquinolin-1-yloxy)ethyl)acetamide] | < 100 |
| < 100 | > 10000 | < 10000 | < 10000 | Cc1cccc2cc([C@H](C)Nc3ncnc4[nH]cnc34)nc(CCN3CCOCC3)c12 [Compound 146] | < 100 |
| < 100 | > 10000 | < 1000 | > 10000 | C[C@H](Nc1ncnc2[nH]cnc12)c1cc2cccc(Cl)c2c(C(=O)N2CCC(F)(F)C2)n1 [Compound 20] | < 100 |
